US20230226005A1, “Methods of Treating, Ameliorating, Shortening Duration, and/or Reversing Symptoms and/or Complications of a Coronavirus Infection” (Yale University, priority 2020, published 2023)

Tests used:
COVID-19 infection [1] = experiment: Phase IIa study: COVID-19 PRO daily self-score, symptom severity score (items 1-33, 0-132); format: in vivo
COVID-19 infection [2] = experiment: Phase IIa study: chest/respiratory-family symptom score; format: in vivo

With `CN(C)C(=O)COC(=O)Cc1ccc(OC(=O)c2ccc(NC(=N)N)cc2)cc1` [camostat, 4-[[4-[(Aminoiminomethyl)amino]benzoyl]oxy]benzeneacetic acid 2-(dimethylamino)-2-oxoethyl ester] the “symptom severity score, ANCOVA linear mixed model, B − A (placebo − camostat)” value (shortened to “symptom severity score … (placebo − camostat)”) (COVID-19 infection [1]; day 7) was 3.71 (3.05), the “symptom severity score, Negative binomial model, A: Camostat arm” value (COVID-19 infection [1]; day 7) was 12.09 (2.79) and the “symptom severity score, Negative binomial model, B − A” value (COVID-19 infection [1]; day 7) was 1.23 (0.3). The “COVID-19 symptom severity score raw Mean” value (COVID-19 infection [1]; day 8) was 11.4, the “symptom score, Fitzmaurice mixed effects model, A: Camostat arm” value (from here on “symptom score … Camostat arm”) (COVID-19 infection [1]; day 8) was 9.57 (2.67) and the “symptom score, Fitzmaurice mixed effects model, B − A (placebo − camostat)” value (shortened to “symptom score … (placebo − camostat)”) (COVID-19 infection [1]; day 8) was 5.4 (2.85). The “symptom severity score, ANCOVA linear mixed model, A: Camostat arm” value (COVID-19 infection [1]; day 8) was −21.42 (2.2), the “symptom severity score … (placebo − camostat)” value (COVID-19 infection [1]; day 8) was 4.43 (3.06) and the “symptom severity score, Negative binomial model, A: Camostat arm” value (COVID-19 infection [1]; day 8) was 10.6 (2.64). For the same compound, the “symptom severity score, Negative binomial model, B − A” value (COVID-19 infection [1]; day 8) was 1.28 (0.34), the “COVID-19 symptom severity score raw Mean” value (COVID-19 infection [1]; day 9) was 10.7 and the “symptom score … Camostat arm” value (COVID-19 infection [1]; day 9) was 8.86 (2.67). The “symptom score … (placebo − camostat)” value (COVID-19 infection [1]; day 9) was 5.13 (2.85), the “symptom severity score, ANCOVA linear mixed model, A: Camostat arm” value (COVID-19 infection [1]; day 9) was −22.13 (2.2) and the “symptom severity score … (placebo − camostat)” value (COVID-19 infection [1]; day 9) was 4.16 (3.06). The “symptom severity score, Negative binomial model, A: Camostat arm” value (COVID-19 infection [1]; day 9) was 9.94 (2.43), the “symptom severity score, Negative binomial model, B − A” value (COVID-19 infection [1]; day 9) was 1.25 (0.33) and the “COVID-19 symptom severity score raw Mean” value (COVID-19 infection [1]; day 10) was 10. The “symptom score … Camostat arm” value (COVID-19 infection [1]; day 10) was 8.24 (2.67), the “symptom score … (placebo − camostat)” value (COVID-19 infection [1]; day 10) was 4.67 (2.85) and the “symptom severity score, ANCOVA linear mixed model, A: Camostat arm” value (COVID-19 infection [1]; day 10) was −22.75 (2.2). The “symptom severity score … (placebo − camostat)” value (COVID-19 infection [1]; day 10) was 3.7 (3.06), the “symptom severity score, Negative binomial model, A: Camostat arm” value (COVID-19 infection [1]; day 10) was 9.36 (2.56) and the “symptom severity score, Negative binomial model, B − A” value (COVID-19 infection [1]; day 10) was 1.2 (0.36). For the same compound, the “COVID-19 symptom severity score raw Mean” value (COVID-19 infection [1]; day 11) was 9.3, the “symptom score … Camostat arm” value (COVID-19 infection [1]; day 11) was 7.25 (2.69) and the “symptom score … (placebo − camostat)” value (COVID-19 infection [1]; day 11) was 4.44 (2.87). The “symptom severity score, ANCOVA linear mixed model, A: Camostat arm” value (COVID-19 infection [1]; day 11) was −23.77 (2.22), the “symptom severity score … (placebo − camostat)” value (COVID-19 infection [1]; day 11) was 3.5 (3.08) and the “symptom severity score, Negative binomial model, A: Camostat arm” value (COVID-19 infection [1]; day 11) was 8.49 (2.3). For the same compound, the “symptom severity score, Negative binomial model, B − A” value (COVID-19 infection [1]; day 11) was 1.17 (0.35), the “COVID-19 symptom severity score raw Mean” value (COVID-19 infection [1]; day 12) was 9.6 and the “symptom score … Camostat arm” value (COVID-19 infection [1]; day 12) was 8.18 (2.69). The “symptom score … (placebo − camostat)” value (COVID-19 infection [1]; day 12) was 2.39 (2.88), the “symptom severity score, ANCOVA linear mixed model, A: Camostat arm” value (COVID-19 infection [1]; day 12) was −22.87 (2.22) and the “symptom severity score … (placebo − camostat)” value (COVID-19 infection [1]; day 12) was 1.46 (3.09). For the same compound, the “symptom severity score, Negative binomial model, A: Camostat arm” value (COVID-19 infection [1]; day 12) was 9.06 (2.18), the “symptom severity score, Negative binomial model, B − A” value (COVID-19 infection [1]; day 12) was 0.94 (0.25) and the “COVID-19 symptom severity score raw Mean” value (COVID-19 infection [1]; day 13) was 9.7. For the same compound, the “symptom score … Camostat arm” value (COVID-19 infection [1]; day 13) was 7.87 (2.75), the “symptom score … (placebo − camostat)” value (COVID-19 infection [1]; day 13) was 2.11 (2.95) and the “symptom severity score, ANCOVA linear mixed model, A: Camostat arm” value (COVID-19 infection [1]; day 13) was −23.17 (2.29). The “symptom severity score … (placebo − camostat)” value (COVID-19 infection [1]; day 13) was 1.17 (3.15), the “symptom severity score, Negative binomial model, A: Camostat arm” value (COVID-19 infection [1]; day 13) was 8.9 (2.27) and the “symptom severity score, Negative binomial model, B − A” value (COVID-19 infection [1]; day 13) was 0.88 (0.26). The “COVID-19 symptom severity score raw Mean” value (COVID-19 infection [1]; day 14) was 8.2, the “symptom score … Camostat arm” value (COVID-19 infection [1]; day 14) was 7.8 (2.75) and the “symptom score … (placebo − camostat)” value (COVID-19 infection [1]; day 14) was 2.24 (2.97). The “symptom severity score, ANCOVA linear mixed model, A: Camostat arm” value (COVID-19 infection [1]; day 14) was −23.26 (2.29), the “symptom severity score … (placebo − camostat)” value (COVID-19 infection [1]; day 14) was 1.32 (3.16) and the “symptom severity score, Negative binomial model, A: Camostat arm” value (COVID-19 infection [1]; day 14) was 8.11 (2.11). For the same compound, the “symptom severity score, Negative binomial model, B − A” value (COVID-19 infection [1]; day 14) was 1.03 (0.31), the “symptom severity scores compared to placebo” value (COVID-19 infection [1]; days 5 through 10, did not reach statistical significance) was “lower” and the “chest/respiratory-family symptom score, Fitzmaurice model, Camostat” value (COVID-19 infection [2]; day 0) was 7.5 (0.7). For the same compound, the “chest/respiratory-family symptom score, Fitzmaurice model, Camostat” value (COVID-19 infection [2]; day 1) was 7.7 (0.8), the “chest/respiratory-family symptom score, Fitzmaurice model, Effect (placebo vs camostat)” value (COVID-19 infection [2]; day 1) was −0.1 (0.9) and the “chest/respiratory-family symptom score, Fitzmaurice model, Camostat” value (COVID-19 infection [2]; day 2) was 7.6 (0.8). For the same compound, the “chest/respiratory-family symptom score, Fitzmaurice model, Effect (placebo vs camostat)” value (COVID-19 infection [2]; day 2) was −0.5 (0.9), the “chest/respiratory-family symptom score, Fitzmaurice model, Camostat” value (COVID-19 infection [2]; day 3) was 7.5 (0.8) and the “chest/respiratory-family symptom score, Fitzmaurice model, Effect (placebo vs camostat)” value (COVID-19 infection [2]; day 3) was −0.4 (0.9). For the same compound, the “chest/respiratory-family symptom score, Fitzmaurice model, Camostat” value (COVID-19 infection [2]; day 4) was 8 (0.8), the “chest/respiratory-family symptom score, Fitzmaurice model, Effect (placebo vs camostat)” value (COVID-19 infection [2]; day 4) was −1.7 (0.9) and the “chest/respiratory-family symptom score, Fitzmaurice model, Camostat” value (COVID-19 infection [2]; day 5) was 7 (0.8). The “chest/respiratory-family symptom score, Fitzmaurice model, Effect (placebo vs camostat)” value (COVID-19 infection [2]; day 5) was −0.8 (0.9), the “chest/respiratory-family symptom score, Fitzmaurice model, Camostat” value (COVID-19 infection [2]; day 6) was 6.6 (0.8) and the “chest/respiratory-family symptom score, Fitzmaurice model, Effect (placebo vs camostat)” value (COVID-19 infection [2]; day 6) was −0.7 (0.9). For the same compound, the “chest/respiratory-family symptom score, Fitzmaurice model, Camostat” value (COVID-19 infection [2]; day 7) was 6.2 (0.8), the “chest/respiratory-family symptom score, Fitzmaurice model, Effect (placebo vs camostat)” value (COVID-19 infection [2]; day 7) was −0.7 (0.9) and the “chest/respiratory-family symptom score, Fitzmaurice model, Camostat” value (COVID-19 infection [2]; day 8) was 5.7 (0.8). The “chest/respiratory-family symptom score, Fitzmaurice model, Effect (placebo vs camostat)” value (COVID-19 infection [2]; day 8) was −1.4 (0.9), the “chest/respiratory-family symptom score, Fitzmaurice model, Camostat” value (COVID-19 infection [2]; day 9) was 5.4 (0.8) and the “chest/respiratory-family symptom score, Fitzmaurice model, Effect (placebo vs camostat)” value (COVID-19 infection [2]; day 9) was −1.2 (0.9). The “chest/respiratory-family symptom score, Fitzmaurice model, Camostat” value (COVID-19 infection [2]; day 10) was 4.9 (0.8), the “chest/respiratory-family symptom score, Fitzmaurice model, Effect (placebo vs camostat)” value (COVID-19 infection [2]; day 10) was −1 (0.9) and the “chest/respiratory-family symptom score, Fitzmaurice model, Camostat” value (COVID-19 infection [2]; day 11) was 4.2 (0.8). The “chest/respiratory-family symptom score, Fitzmaurice model, Effect (placebo vs camostat)” value (COVID-19 infection [2]; day 11) was −0.5 (0.9), the “chest/respiratory-family symptom score, Fitzmaurice model, Camostat” value (COVID-19 infection [2]; day 12) was 4 (0.8) and the “chest/respiratory-family symptom score, Fitzmaurice model, Effect (placebo vs camostat)” value (COVID-19 infection [2]; day 12) was −1 (0.9). The “chest/respiratory-family symptom score, Fitzmaurice model, Camostat” value (COVID-19 infection [2]; day 13) was 3.9 (0.9), the “chest/respiratory-family symptom score, Fitzmaurice model, Effect (placebo vs camostat)” value (COVID-19 infection [2]; day 13) was −1.1 (0.9) and the “chest/respiratory-family symptom score, Fitzmaurice model, Camostat” value (COVID-19 infection [2]; day 14) was 3.5 (0.9). For the same compound, the “chest/respiratory-family symptom score, Fitzmaurice model, Effect (placebo vs camostat)” value (COVID-19 infection [2]; day 14) was −0.8 (0.9).
